Patent publication US20040121946A9, “Inducing cellular immune responses to her2/neu using peptide and nucleic acid compositions” (priority 2002, published 2004)

Key:
[1] = system: HLA-DR molecules (DR1, DR4w4, DR7, DRB5*0101, DRB1*1501, DRB1*1101, DRB1*0802, DRB1*1302); assay: DR supertype cross-reactive binding; set-up: species or system human; conditions: for DR147 Binding / DR147 Cross-binding: number of DR1, DR4w4, DR7 bound; for DR147 Binding: Table XXIX; for DR147 Cross-binding: Table XXVIII; for Broad Binding (5/8): number of the 8 DR alleles bound
[2] = molecular target: DRB5*0101 (DR2w2β2) (Homo sapiens, UniProt P01903+Q30154); assay: HLA class II peptide binding assay, purified HLA; conditions: for DR2w2B2 binding data: Table XIX, DR supermotif peptides, unit not given
[3] = molecular target: DRB1*0301 (DR3) (Homo sapiens, UniProt P01903+P01911, A100K/A102G/A103R/A169T/F55Y/I96L/K41T/L162R/M171V/P40S/Q125H/Q178H/Q39Y/R42S/S66N/T106N/T262R/W38E/Y61H); assay: HLA class II peptide binding assay, purified HLA; conditions: Table XIX, DR supermotif peptides; unit not given
[4] = molecular target: DRB1*0401 (DR4w4) (Homo sapiens, UniProt P01903+P01911, A100K/A169T/F76Y/I96L/K127E/L162R/M171V/N62H/P40V/Q125Y/R42H/S133A/S149N/S66Y/V115G/V209L/W38E); assay: HLA class II peptide binding assay, purified HLA; conditions: Table XIX, DR supermotif peptides; unit not given
[5] = molecular target: DRB1*1302 (DR6w19) (Homo sapiens, UniProt P01903+P01911, A100E/A169T/K41T/L162R/M171V/P40S/Q125H/Q178H/Q39Y/Q99D/R42S/S66N/T262R/V115G/W38E/Y61H); assay: HLA class II peptide binding assay, purified HLA; conditions: Table XIX, DR supermotif peptides; unit not given
[6] = molecular target: DRB1*0701 (DR7) (Homo sapiens, UniProt P01903+P01911, A100R/A102G/A103Q/D57E/D86V/E43K/F76Y/K127E/L162R/M171V/P40G/Q125H/Q99D/R33Q/R42Y/R54Q/S133A/S66F/T210M/V115G/Y107V/Y59L/Y89S); assay: HLA class II peptide binding assay, purified HLA; conditions: Table XIX, DR supermotif peptides; unit not given
[7] = molecular target: DRB1*0802 (DR8w2) (Homo sapiens, UniProt P01903+P01911, A100R/A103L/A169T/F76Y/H45Y/I96F/K41T/L162R/M171V/P40S/Q125H/Q178H/Q39Y/Q99D/R218S/R42G/S66Y/V115G/W38E); assay: HLA class II peptide binding assay, purified HLA; conditions: Table XIX, DR supermotif peptides; unit not given
[8] = molecular target: DRB1*0101 (DR1) (Homo sapiens, UniProt P01903+P01911, A100R/D57E/F55L/F60I/F76Y/I96L/L162R/M171V/P40L/Q125E/R42F/V115G/Y59C); assay: HLA class II peptide binding assay, purified HLA; conditions: Table XIX, DR supermotif peptides; unit not given
[9] = molecular target: DRB1*1101 (DR5w11) (Homo sapiens, UniProt P01903+P01911, A100R/A169T/A87E/I96F/K41T/L162R/M171V/P40S/Q125H/Q178H/Q39Y/Q99D/R42S/S66Y/T262R/V115G/W38E); assay: HLA class II peptide binding assay, purified HLA; conditions: for DR5w11 binding data: Table XIX, DR supermotif peptides, unit not given
[10] = molecular target: DRB1*1501 (DR2w2β1) (Homo sapiens, UniProt P01903+P01911); assay: HLA class II peptide binding assay, purified HLA; conditions: for DR2wB1 binding data: Table XIX, DR supermotif peptides, unit not given

Compound	No. of DR Alleles Crossbound ([1]; Table XXXI)	DR147 Binding [1]	DR147 Cross-binding [1]	Broad Binding (5/8) [1]	DR2w2B2 binding data [2]	IC50 ([2]; Table XXIX, read-out: DR2w2β2 nM) [nM]	DR3 binding data [3]	DR4w4 binding data [4]	DR6w19 binding data [5]	DR7 binding data [6]	DR8w2 binding data [7]	DR1 binding data [8]	DR5w11 binding data [9]	IC50 ([9]; Table XXIX, read-out: DR5w11 nM) [nM]	DR2wB1 binding data [10]	IC50 ([10]; Table XXIX, read-out: DR2w2β1 nM) [nM]
CC[C@H](C)[C@H](NC(=O)CNC(=O)[C@H](CC(=O)O)NC(=O)[C@H](Cc1ccc(O)cc1)NC(=O)[C@@H]1CCCN1C(=O)[C@H](CCCCN)NC(=O)[C@H](C)NC(=O)CNC(=O)[C@H](Cc1ccccc1)NC(=O)[C@@H](NC(=O)[C@H](CCSC)NC(=O)[C@H](CC(C)C)NC(=O)[C@H](CCC(=O)O)NC(=O)[C@H](Cc1c[nH]c2ccccc12)NC(=O)[C@@H](N)C(C)C)[C@@H](C)O)C(=O)O	5	3	3	5	0.1000	200	0.0010	0.0550	0.0004	0.0370	0.0089	0.0870	0.0054	3700	0.0990	92
CC[C@H](C)[C@H](NC(=O)[C@H](CCCNC(=N)N)NC(=O)CNC(=O)[C@H](CCCNC(=N)N)NC(=O)[C@@H](NC(=O)[C@@H](NC(=O)[C@H](CCC(N)=O)NC(=O)[C@H](CC(C)C)NC(=O)[C@H](CC(N)=O)NC(=O)[C@H](CCC(N)=O)NC(=O)[C@H](Cc1ccccc1)NC(=O)[C@@H](NC(=O)[C@H](CO)NC(=O)[C@@H](N)CC(C)C)C(C)C)C(C)C)[C@@H](C)CC)C(=O)N[C@@H](CC(C)C)C(=O)O		3	3	6	0.0740		0.0010	0.0670	0.0057	0.2900	0.0330	0.1800	0.0100		0.0280	
CC(C)C[C@H](NC(=O)[C@H](CO)NC(=O)[C@H](C)NC(=O)[C@H](CC(N)=O)NC(=O)[C@@H](NC(=O)[C@@H]1CCCN1C(=O)[C@H](CC(C)C)NC(=O)[C@H](Cc1ccc(O)cc1)NC(=O)[C@@H](NC(=O)[C@@H](N)CC(C)C)[C@@H](C)O)[C@@H](C)O)C(=O)N[C@@H](CO)C(=O)N[C@@H](Cc1ccccc1)C(=O)N[C@@H](CC(C)C)C(=O)N[C@@H](CCC(N)=O)C(=O)N[C@@H](CC(=O)O)C(=O)O		3	3	6	0.0560		0.0150	0.3300	0.0280	0.3200	0.0054	0.4900	0.0041		0.0100	
ASPLTSHSAVVGIL					0.0037		0.0010	−0.0025	0.0480	0.0350	−0.0004	0.0890	−0.0005		0.0950	
ELELRKVKVLGSGAF					0.0052		0.0045	0.0350	0.0014	0.0380	0.0250	0.0160	0.0061		0.0019	
